# Experimental data published in the supplement of paper PMC10307832.
# Assays:
# Assay in all cases: relative viability (nuclei count vs DMSO), 5 days (fraction); higher = more cells survive
# [1] = compound: CC1(C)CCC(CN2CCN(c3ccc(C(=O)NS(=O)(=O)c4ccc(NCC5CCOCC5)c([N+](=O)[O-])c4)c(Oc4cnc5[nH]ccc5c4)c3)CC2)=C(c2ccc(Cl)cc2)C1 [Venetoclax] + CC1(C)CCC(c2ccc(Cl)cc2)=C(CN2CCN(c3ccc(C(=O)NS(=O)(=O)c4ccc(N[C@H](CCN5CCOCC5)CSc5ccccc5)c(S(=O)(=O)C(F)(F)F)c4)cc3)CC2)C1 [Navitoclax] (partner 0.5 µM)
# How it was run: (§1)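 Lung cancer cell lines were seeded in 1536-well plates and dosed by pin tool the next day, with either a single drug or a fixed anchor-drug dose combined with five library-drug doses (not always all listed) spaced in √10 steps. Five days later, one step fixed the cells and stained their nuclei (final 0.05% Triton X-100, 1% formaldehyde, 1 ug/ml Hoechst), and nuclei were counted on 4× images. Relative viability is the nuclei count in treated wells divided by the count in vehicle wells, and each value is the median of duplicate plates.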
# [2] = compound: CC1(C)CCC(CN2CCN(c3ccc(C(=O)NS(=O)(=O)c4ccc(NCC5CCOCC5)c([N+](=O)[O-])c4)c(Oc4cnc5[nH]ccc5c4)c3)CC2)=C(c2ccc(Cl)cc2)C1 [Venetoclax] + N=C(N)NC(=N)NCCc1ccccc1 [Phenformin] (partner 250 µM)
# How it was run: as §1
# [3] = compound: Cn1cnc2c(F)c(Nc3ccc(Br)cc3Cl)c(C(=O)NOCCO)cc21 [Selumetinib] + CCNC(=O)c1noc(-c2cc(C(C)C)c(O)cc2O)c1-c1ccc(CN2CCOCC2)cc1 [Luminespib] (partner 0.01 µM)
# How it was run: as §1
# [4] = compound: Cn1cnc2c(F)c(Nc3ccc(Br)cc3Cl)c(C(=O)NOCCO)cc21 [Selumetinib] + Cc1nc(NC(=O)N2CCC[C@H]2C(N)=O)sc1-c1ccnc(C(C)(C)C(F)(F)F)c1 [Alpelisib] (partner 2 µM)
# How it was run: as §1
Cell Line,relative viability ([1]; first compound 0.01 µM),relative viability ([1]; first compound 0.03162 µM),relative viability ([1]; first compound 0.1 µM),relative viability ([1]; first compound 0.3162 µM),relative viability ([1]; first compound 1 µM),relative viability ([2]; first compound 0.01 µM),relative viability ([2]; first compound 0.03162 µM),relative viability ([2]; first compound 0.1 µM),relative viability ([2]; first compound 0.3162 µM),relative viability ([2]; first compound 1 µM),relative viability ([3]; first compound 0.02 µM),relative viability ([3]; first compound 0.06325 µM),relative viability ([3]; first compound 0.2 µM),relative viability ([3]; first compound 0.6325 µM),relative viability ([4]; first compound 0.02 µM),relative viability ([4]; first compound 0.06325 µM),relative viability ([4]; first compound 0.2 µM),relative viability ([4]; first compound 0.6325 µM)
NCI-H1915,0.763,0.79,0.733,0.788,0.779,0.362,0.385,0.354,0.376,0.375,0.887,0.744,0.587,0.373,1.02,0.936,0.692,0.49
NCI-H1944,1.03,1.09,0.99,1.06,1.09,0.216,0.197,0.183,0.212,0.205,0.907,0.59,0.48,0.445,0.71,0.677,0.594,0.52
NCI-H1975,1.15,1.15,1.05,1.21,1.11,0.429,0.397,0.401,0.41,0.366,0.143,0.209,0.175,0.183,0.643,0.511,0.413,0.37
NCI-H1993,0.971,0.904,0.944,0.962,0.891,0.603,0.494,0.473,0.48,0.528,0.786,0.776,0.695,0.569,0.681,0.584,0.769,0.702
NCI-H2009,1.14,1.14,1.13,1.15,1.05,0.48,0.459,0.439,0.446,0.337,0.826,0.753,0.558,0.371,0.99,0.713,0.519,0.486
NCI-H2023,0.984,0.987,0.924,0.96,0.86,0.434,0.393,0.435,0.434,0.378,0.947,0.669,0.575,0.575,0.592,0.429,0.471,0.547
NCI-H2085,0.952,1.16,1.17,1.26,1.06,0.635,0.762,0.688,0.766,0.655,0.527,0.402,0.376,0.326,0.884,0.742,0.796,0.873
NCI-H2087,1.01,0.982,0.921,0.942,0.974,0.461,0.471,0.387,0.407,0.461,0.167,0.193,0.148,0.147,0.777,0.65,0.515,0.306
NCI-H2126,0.886,0.853,0.851,0.808,0.855,0.528,0.56,0.513,0.582,0.51,0.839,0.756,0.792,0.782,0.679,0.675,0.58,0.532
NCI-H2170,0.746,0.688,0.521,0.509,0.531,0.319,0.415,0.399,0.368,0.34,0.358,0.845,0.651,0.617,0.763,0.828,0.736,0.658
NCI-H2228,0.932,1.03,0.927,0.836,0.999,0.366,0.322,0.234,0.422,0.408,0.154,0.14,0.125,0.193,0.72,0.608,0.416,0.411
NCI-H2347,0.793,0.876,0.807,0.855,0.819,0.316,0.449,0.433,0.424,0.33,0.431,0.287,0.272,0.332,0.832,0.613,0.445,0.387
NCI-H2405,0.865,1.02,,0.941,0.91,0.343,0.357,0.348,0.404,0.379,0.603,0.597,0.426,0.327,0.737,0.472,0.427,0.277
NCI-H3122,1.11,1.03,1.03,1.01,1.01,0.366,0.361,0.341,0.339,0.282,0.0969,0.0828,0.0994,0.0908,0.551,0.492,0.353,0.366
PC-3 [JPC-3],0.832,0.785,0.78,0.829,0.744,0.503,0.51,0.487,0.468,0.513,0.721,0.625,0.458,0.442,1.02,0.935,0.9,0.752
PC-14,0.986,1.03,0.936,0.954,0.926,0.562,0.747,0.717,0.709,0.499,0.147,0.177,0.163,0.151,0.92,0.835,0.925,0.848
RERF-LC-KJ,0.994,0.961,0.794,1.08,0.89,0.382,0.414,0.418,0.458,0.442,1.32,0.924,1.06,0.987,0.858,0.772,0.693,0.636
